Assay results reported in patent US10407395B2, “Benzimidazole compound and medical use thereof” (Sumitomo Dainippon Pharma Co., Ltd., priority 2015, dated 2019).
Blank lines part the entries; values can stand above or below the molecule they belong to.

Biological target: human SCN9A (Nav 1.7) (Homo sapiens, UniProt Q15858)
Test: Measurement of Na ion current (Nav 1.7) by automated patch clamp assay in cells stably-expressing human SCN9A
Assay type: cell-based
Conditions: holding potential inactivating 50% Nav 1.7 channel (around −60 mV), read-out: Inhibitory rate (%) of Na ion current; for inhibition at 10 µM: compound concentration 10 μmol/L; for inhibition at 100 µM: compound concentration 100 μmol/L (footnoted examples)
Method: Measurement of Na Ion Current in Voltage-Dependent Na Channel Gene Expressed Cell Nav 1.7 current was measured by automated patch clamp assay using cells stably-expressing human SCN9A. Cells Stably-expressing Human SCN9A Tetracycline-induced cells stably-expressing SCN9A were obtained from ChanTest Corporation. […] Next day, the Na ion current was measured by automated patch clamp assay. Electrophysiologic Measurement of Na Ion Current The Na ion current was measured by automated patch clamp assay using the following extracellular solution and intracellular solution. […] The control of the stimulating pulse and the data acquisition were carried out using EPC10 amplifier and Patch Master Software (HEKA). Data were sampled at 10 kHz, and low-pass filtered at 3 kHz. All the measurements were carried out at room temperature. […] The inhibitory rate of the Na ion current by the test compounds was calculated according to the following calculating formula with the peak current value generated by the depolarizing pulse. […] The inhibitory rate of Na ion current by each Example Compound was evaluated.

human SCN9A (Nav 1.7), sequence (Q15858 whole entry): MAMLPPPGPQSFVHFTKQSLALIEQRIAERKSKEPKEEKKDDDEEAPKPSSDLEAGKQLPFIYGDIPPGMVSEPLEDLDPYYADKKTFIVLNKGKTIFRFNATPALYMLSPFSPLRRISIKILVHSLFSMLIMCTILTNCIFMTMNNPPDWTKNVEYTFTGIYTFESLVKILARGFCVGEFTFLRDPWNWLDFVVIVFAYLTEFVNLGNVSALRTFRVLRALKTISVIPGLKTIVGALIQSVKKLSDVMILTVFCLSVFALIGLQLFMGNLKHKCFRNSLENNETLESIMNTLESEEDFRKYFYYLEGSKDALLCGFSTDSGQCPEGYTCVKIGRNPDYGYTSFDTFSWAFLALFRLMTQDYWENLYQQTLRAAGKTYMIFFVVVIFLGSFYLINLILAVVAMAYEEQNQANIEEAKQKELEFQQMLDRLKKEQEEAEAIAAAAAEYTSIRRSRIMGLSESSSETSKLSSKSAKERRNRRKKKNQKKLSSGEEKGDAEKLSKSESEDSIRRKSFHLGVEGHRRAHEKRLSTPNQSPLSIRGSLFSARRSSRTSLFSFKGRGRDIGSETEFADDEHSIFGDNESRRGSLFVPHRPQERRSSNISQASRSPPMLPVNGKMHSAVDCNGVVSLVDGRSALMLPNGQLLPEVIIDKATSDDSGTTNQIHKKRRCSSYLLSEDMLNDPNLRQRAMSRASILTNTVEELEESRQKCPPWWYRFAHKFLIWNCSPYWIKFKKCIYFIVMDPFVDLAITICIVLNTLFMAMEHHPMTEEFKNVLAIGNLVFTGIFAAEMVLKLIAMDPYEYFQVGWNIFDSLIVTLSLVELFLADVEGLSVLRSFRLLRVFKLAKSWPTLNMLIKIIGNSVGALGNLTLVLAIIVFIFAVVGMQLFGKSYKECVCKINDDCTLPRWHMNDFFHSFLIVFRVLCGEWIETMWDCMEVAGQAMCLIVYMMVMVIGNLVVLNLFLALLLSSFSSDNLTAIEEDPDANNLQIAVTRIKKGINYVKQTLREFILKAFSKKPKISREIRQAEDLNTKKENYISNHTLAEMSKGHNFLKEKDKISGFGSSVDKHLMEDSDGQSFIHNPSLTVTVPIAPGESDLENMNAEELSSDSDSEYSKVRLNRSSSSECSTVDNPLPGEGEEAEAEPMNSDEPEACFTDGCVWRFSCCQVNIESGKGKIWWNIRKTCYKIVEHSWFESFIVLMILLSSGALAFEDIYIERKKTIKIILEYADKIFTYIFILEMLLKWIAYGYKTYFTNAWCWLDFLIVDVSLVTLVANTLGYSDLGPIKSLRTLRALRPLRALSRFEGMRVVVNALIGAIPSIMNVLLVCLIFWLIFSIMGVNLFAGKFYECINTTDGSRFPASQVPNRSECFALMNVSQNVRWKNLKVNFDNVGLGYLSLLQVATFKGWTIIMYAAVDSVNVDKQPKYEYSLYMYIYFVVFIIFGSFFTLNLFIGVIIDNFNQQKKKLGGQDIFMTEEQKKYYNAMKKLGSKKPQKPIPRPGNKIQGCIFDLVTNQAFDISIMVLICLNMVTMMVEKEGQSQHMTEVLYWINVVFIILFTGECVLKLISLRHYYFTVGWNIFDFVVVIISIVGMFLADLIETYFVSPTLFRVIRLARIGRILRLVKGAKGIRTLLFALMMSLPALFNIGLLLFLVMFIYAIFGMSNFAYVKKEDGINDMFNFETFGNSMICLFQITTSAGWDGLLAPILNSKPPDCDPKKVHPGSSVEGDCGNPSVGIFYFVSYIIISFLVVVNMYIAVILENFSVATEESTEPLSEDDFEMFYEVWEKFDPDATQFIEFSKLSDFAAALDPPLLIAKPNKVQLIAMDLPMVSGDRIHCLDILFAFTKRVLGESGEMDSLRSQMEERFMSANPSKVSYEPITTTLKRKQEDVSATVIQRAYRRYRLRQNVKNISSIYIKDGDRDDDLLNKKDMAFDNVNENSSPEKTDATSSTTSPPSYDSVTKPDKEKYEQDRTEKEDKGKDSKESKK

inhibition at 10 µM: 40%
SMILES: CC(C)(O)CCn1cnc2cc(-c3ccc(F)cc3)ccc21 [Example 219]

inhibition at 10 µM: 32%
SMILES: CC(C)(O)Cn1cnc2cc(-c3ccc4ocnc4c3)ccc21 [Example 201]

inhibition at 100 µM: 66%
SMILES: OC1(Cn2cnc3ccc(Oc4cccc(F)c4)cc32)COC1 [Example 95]

inhibition at 10 µM: 47%
SMILES: OC1(Cn2cnc3ccc(Oc4ccc(C(F)(F)F)cn4)cc32)CC1 [Example 57]

inhibition at 10 µM: 38%
SMILES: CC(C)(O)Cn1cnc2ccc(-c3cccc(C(F)(F)F)c3)cc21 [Example 137]

inhibition at 10 µM: 78%
SMILES: CC(C)(O)Cn1cnc2cc(-c3ccc(C(F)(F)F)cc3Cl)ccc21 [Example 192]

inhibition at 10 µM: 83%
SMILES: CC(C)(O)CCn1cnc2ccc(Oc3ccc(OC(F)(F)F)cc3)cc21 [Example 97]

inhibition at 10 µM: 77%
SMILES: CC(C)(O)Cn1cnc2ccc(-c3ccc(C(F)(F)F)cc3)cc21 [Example 9, 2-methyl-1-{6-[4-(trifluoromethyl)phenyl]-1H-benzimidazol-1-yl}propan-2-ol]

inhibition at 10 µM: 52%
SMILES: FC(F)(F)c1ccc(-c2ccc3ncn(CCOC4CCCC4)c3c2)cc1 [Example 10, 1-[2-(cyclopentyloxy)ethyl]-6-[4-(trifluoromethyl)phenyl]-1H-benzimidazole]

inhibition at 10 µM: 30%
SMILES: OC1(Cn2cnc3ccc(Oc4ccc(Cl)cc4F)cc32)COC1 [Example 109]

inhibition at 10 µM: 67%
SMILES: CC(C)(O)Cn1cnc2cc(-c3ccc(C(F)(F)F)cc3)ccc21 [Example 184]

inhibition at 10 µM: 35%
SMILES: CC(C)(O)Cn1cnc2ccc(-c3cccc(Cl)c3)cc21 [Example 139]

inhibition at 10 µM: 16%
SMILES: CC(C)(O)Cn1cnc2cc(-c3ccc(F)cc3)ccc21 [Example 175, 1-[5-(4-fluorophenyl)-1H-benzimidazol-1-yl]-2-methylpropan-2-ol]

inhibition at 10 µM: 47%
SMILES: COc1cc(-c2ccc3ncn(CC4(O)COC4)c3c2)cc(C(F)(F)F)c1 [Example 163]

inhibition at 10 µM: 32%
SMILES: CC(C)(O)CCn1cnc2ccc(-c3ccc(F)cc3)cc21 [Example 170]

inhibition at 10 µM: 34%
SMILES: CC(C)(O)Cn1cnc2ccc(-c3ccccc3Cl)cc21 [Example 138]

inhibition at 10 µM: 55%
SMILES: COc1cc(-c2ccc3ncn(CC(C)(C)O)c3c2)cc(C(F)(F)F)c1 [Example 142]

inhibition at 10 µM: 45%
SMILES: Cc1c(Cl)cccc1-c1ccc2ncn(CC3(O)COC3)c2c1 [Example 159]

inhibition at 10 µM: 51%
SMILES: OC1(Cn2cnc3ccc(Oc4ccc(Cl)c(Cl)c4)cc32)COC1 [Example 107]

inhibition at 10 µM: 13%
SMILES: COc1ccc(-c2ccc3ncn(CC(C)(C)O)c3c2)cn1 [Example 125]

inhibition at 10 µM: 47%
SMILES: CC(C)(O)CCn1cnc2cc(-c3ccc(C(F)(F)F)cc3F)ccc21 [Example 223]

inhibition at 10 µM: 55%
SMILES: COc1cc(-c2ccc3c(c2)ncn3CC2(O)COC2)cc(C(F)(F)F)c1 [Example 212]

inhibition at 10 µM: 75%
SMILES: CC(C)(O)Cn1cnc2ccc(-c3ccc(C(F)(F)F)cn3)cc21 [Example 11, 2-methyl-1-{6-[5-(trifluoromethyl)pyridin-2-yl]-1H-benzimidazol-1-yl}propan-2-ol]

Further lines, the molecule ahead of its results:

SMILES: CC(C)(O)Cn1cnc2cc(-c3ccc(F)c(Cl)c3)ccc21 [Example 190]
inhibition at 10 µM: 42%

SMILES: OC1(Cn2cnc3ccc(-c4ccc(Cl)c(Cl)c4)cc32)COC1 [Example 155]
inhibition at 10 µM: 55%

SMILES: CC(C)(O)Cn1cnc2cc(-c3cccc(Cl)c3F)ccc21 [Example 189]
inhibition at 10 µM: 42%

SMILES: OC1(Cn2cnc3ccc(Oc4ccc(C(F)(F)F)cn4)cc32)CCOCC1 [Example 55]
inhibition at 10 µM: 37%

SMILES: COc1ccc(-c2ccc3c(c2)ncn3CC(C)(C)O)cn1 [Example 182]
inhibition at 100 µM: 11%

SMILES: CC(C)(O)CCn1cnc2ccc(-c3ccc(C(F)(F)F)cc3F)cc21 [Example 174]
inhibition at 10 µM: 66%

SMILES: OC1(Cn2cnc3ccc(-c4cc(F)cc(Cl)c4)cc32)COC1 [Example 165]
inhibition at 10 µM: 35%

SMILES: COc1cc(-c2ccc3c(c2)ncn3CC(C)(C)O)cc(C(F)(F)F)c1 [Example 199]
inhibition at 10 µM: 84%

SMILES: Cc1c(-c2ccc3ncn(CC4(O)COC4)c3c2)cccc1C(F)(F)F [Example 166]
inhibition at 10 µM: 54%

SMILES: CC(C)(O)Cn1cnc2cc(-c3cccc(Cl)c3)ccc21 [Example 196]
inhibition at 10 µM: 49%

SMILES: Cc1ccc(Oc2ccc3ncn(CC4(O)COC4)c3c2)cc1 [Example 92]
inhibition at 10 µM: 16%

SMILES: OC1(Cn2cnc3cc(-c4cc(C(F)(F)F)ccc4Cl)ccc32)COC1 [Example 211]
inhibition at 10 µM: 44%

SMILES: COc1cc(C(F)(F)F)ccc1-c1ccc2ncn(CC(C)(C)O)c2c1 [Example 124]
inhibition at 10 µM: 61%

SMILES: CC(C)(O)Cn1cnc2cc(-c3ccc(Cl)cc3Cl)ccc21 [Example 185]
inhibition at 10 µM: 45%

SMILES: COc1cc(F)ccc1-c1ccc2ncn(CC(C)(C)O)c2c1 [Example 128]
inhibition at 10 µM: 24%

SMILES: CC(C)(O)Cn1cnc2cc(-c3ccc(C(F)(F)F)nc3)ccc21 [Example 180]
inhibition at 10 µM: 33%

SMILES: OC1(Cn2cnc3cc(-c4ccc(C(F)(F)F)cc4Cl)ccc32)COC1 [Example 206]
inhibition at 10 µM: 69%

SMILES: FC(F)(F)c1ccc(-c2ccc3ncn(CCOC4CCCC4)c3c2)nc1 [Example 12, 1-[2-(cyclopentyloxy)ethyl]-6-[5-(trifluoromethyl)pyridin-2-yl]-1H-benzimidazole]
inhibition at 10 µM: 58%

SMILES: CC(C)(O)Cn1cnc2cc(Oc3ccc(C(F)(F)F)cc3)ccc21 [Example 225]
inhibition at 10 µM: 64%

SMILES: OC1(Cn2cnc3cc(-c4cc(F)cc(Cl)c4)ccc32)COC1 [Example 214]
inhibition at 10 µM: 42%

SMILES: CC(C)(O)Cn1cnc2ccc(-c3cc(F)cc(Cl)c3)cc21 [Example 143]
inhibition at 10 µM: 35%

SMILES: Cc1c(Cl)cccc1-c1ccc2c(c1)ncn2CC1(O)COC1 [Example 208]
inhibition at 10 µM: 43%

SMILES: OC1(Cn2cnc3ccc(Oc4ccc(C(F)(F)F)cn4)cc32)CCCC1 [Example 119]
inhibition at 10 µM: 36%

SMILES: CC(C)(O)Cn1cnc2ccc(-c3ccc(F)c(Cl)c3)cc21 [Example 134]
inhibition at 10 µM: 50%

SMILES: CC(C)(O)Cn1cnc2ccc(-c3ccc(Cl)cc3C(F)(F)F)cc21 [Example 131]
inhibition at 10 µM: 62%

SMILES: OC1(Cn2cnc3ccc(Oc4ccc5ncccc5c4)cc32)COC1 [Example 115]
inhibition at 10 µM: 31%

SMILES: CC(C)(O)Cn1cnc2ccc(-c3ccc(C(F)(F)F)nc3)cc21 [Example 122]
inhibition at 10 µM: 14%

SMILES: CC(C)(O)Cn1cnc2cc(Oc3ncc(C(F)(F)F)cn3)ccc21 [Example 52, 2-methyl-1-(5-{[5-(trifluoromethyl)pyrimidin-2-yl]oxy}-1H-benzimidazol-1-yl)propan-2-ol]
inhibition at 10 µM: 46%

SMILES: OC1(Cn2cnc3ccc(Oc4ccc(C(F)(F)F)cn4)cc32)CCC1 [Example 58, 1-[(6-{[5-(trifluoromethyl)pyridin-2-yl]oxy}-1H-benzimidazol-1-yl)methyl]cyclobutanol]
inhibition at 10 µM: 48%

SMILES: CC(C)(O)CCn1cnc2cc(-c3ccc(C(F)(F)F)cc3)ccc21 [Example 221]
inhibition at 10 µM: 45%

SMILES: COc1cc(C(F)(F)F)ccc1-c1ccc2c(c1)ncn2CC(C)(C)O [Example 176, 1-{5-[2-methoxy-4-(trifluoromethyl)phenyl]-1H-benzimidazol-1-yl}-2-methylpropan-2-ol]
inhibition at 10 µM: 73%

SMILES: OC1(Cn2cnc3cc(-c4ccc(Cl)cc4C(F)(F)F)ccc32)COC1 [Example 207]
inhibition at 10 µM: 65%

SMILES: CC(C)(O)Cn1cnc2ccc(Oc3ccccc3)cc21 [Example 13, 2-methyl-1-(6-phenoxy-1H-benzimidazol-1-yl)propan-2-ol]
inhibition at 10 µM: 25%

SMILES: CC(C)(O)CCn1cnc2cc(-c3ccc(Cl)cc3)ccc21 [Example 220]
inhibition at 10 µM: 52%

SMILES: Fc1ccc(-c2ccc3ncn(CC4CCCO4)c3c2)cc1 (stereo not drawn) [Example 6]
inhibition at 10 µM: 41%

SMILES: Cc1cc(Cl)ccc1-c1ccc2ncn(CC(C)(C)O)c2c1 [Example 129]
inhibition at 10 µM: 51%

SMILES: Fc1ccc(Oc2ccc3ncn(CCOC4CCCC4)c3c2)cc1 [Example 4, 1-[2-(cyclopentyloxy)ethyl]-6-(4-fluorophenoxy)-1H-benzimidazole]
inhibition at 10 µM: 52%

SMILES: OC1(Cn2cnc3ccc(Oc4ccc(C(F)(F)F)cn4)cc32)COC1 [Example 56, 3-[(6-{[5-(trifluoromethyl)pyridin-2-yl]oxy}-1H-benzimidazol-1-yl)methyl]oxetan-3-ol]
inhibition at 10 µM: 45%

SMILES: COc1cc(C(F)(F)F)ccc1-c1ccc2c(c1)ncn2CCC(C)(C)O [Example 222]
inhibition at 10 µM: 45%

SMILES: OC1(Cn2cnc3ccc(Oc4cc(Cl)ccc4Cl)cc32)COC1 [Example 112]
inhibition at 10 µM: 39%

SMILES: CC(C)(O)CCn1cnc2ccc(Oc3ccc(C(F)(F)F)nc3)cc21 [Example 103]
inhibition at 10 µM: 10%

SMILES: CC(C)(O)Cn1cnc2cc(Oc3ccc(C(F)(F)F)cc3F)ccc21 [Example 224, 1-{5-[2-fluoro-4-(trifluoromethyl)phenoxy]-1H-benzimidazol-1-yl}-2-methylpropan-2-ol]
inhibition at 10 µM: 53%

SMILES: OC1(Cn2cnc3ccc(Oc4ccc(F)cc4)cc32)COC1 [Example 90]
inhibition at 10 µM: 15%

SMILES: CC(C)(O)Cn1cnc2ccc(-c3ccc(N4CCOCC4)nc3)cc21 [Example 127]
inhibition at 100 µM: 16%

SMILES: OC1(Cn2cnc3cc(-c4cc(C(F)(F)F)ccc4F)ccc32)COC1 [Example 210]
inhibition at 10 µM: 48%

SMILES: OC1(Cn2cnc3ccc(Oc4cc(Cl)cc(Cl)c4)cc32)COC1 [Example 111]
inhibition at 10 µM: 52%
